Measurements published in PubChem BioAssay AID1259407 (Chemical Carcinogenesis Research Information System (CCRIS), 2018).
Active and inactive are the calls of the source. How the calls were made is not given here.

Tested on: CCRIS mutagenicity, Ames/micronucleus/aberration tests
Experiment: CCRIS mutagenicity studies
[1] = Test System: AMES SALMONELLA TYPHIMURIUM, Strain/Indicator: TA100, Metabolic Activation: NONE, Method: PREINCUBATION
[2] = Test System: AMES SALMONELLA TYPHIMURIUM, Strain/Indicator: TA100, Metabolic Activation: RAT, LIVER, S-9, PHENOBARBITAL, Method: PREINCUBATION
[3] = Test System: AMES SALMONELLA TYPHIMURIUM, Strain/Indicator: TA100, Metabolic Activation: NONE, Method: STANDARD PLATE
[4] = Test System: AMES SALMONELLA TYPHIMURIUM, Strain/Indicator: TA100, Metabolic Activation: RAT, LIVER, S-9, AROCLOR 1254, Method: STANDARD PLATE

## CC(O)CN(C)N=O (stereo unspecified)
Test System: AMES SALMONELLA TYPHIMURIUM, Strain/Indicator: TA100, Metabolic Activation: HAMSTER, LIVER, S-9, 3-METHYLCHOLANTHRENE, Method: PREINCUBATION
  mutagenic call: active; positive
Test System: AMES SALMONELLA TYPHIMURIUM, Strain/Indicator: TA100, Metabolic Activation: HAMSTER, LIVER, S-9, PHENOBARBITAL, Method: PREINCUBATION
  mutagenic call: active; positive
Test System: AMES SALMONELLA TYPHIMURIUM, Strain/Indicator: TA100, Metabolic Activation: HAMSTER, LIVER, S-9, Method: PREINCUBATION
  mutagenic call: active; positive
Test System: AMES SALMONELLA TYPHIMURIUM, Strain/Indicator: TA100, Metabolic Activation: HUMAN, LIVER, S-9, Method: PREINCUBATION
  mutagenic call: active; positive
Test System: AMES SALMONELLA TYPHIMURIUM, Strain/Indicator: TA100, Metabolic Activation: MONKEY, LIVER, S-9, Method: PREINCUBATION
  mutagenic call: active; positive
Test System: AMES SALMONELLA TYPHIMURIUM, Strain/Indicator: TA100, Metabolic Activation: MOUSE, LIVER, S-9, 3-METHYLCHOLANTHRENE, Method: PREINCUBATION
  mutagenic call: active; positive
Test System: AMES SALMONELLA TYPHIMURIUM, Strain/Indicator: TA100, Metabolic Activation: MOUSE, LIVER, S-9, PHENOBARBITAL, Method: PREINCUBATION
  mutagenic call: active; positive
Test System: AMES SALMONELLA TYPHIMURIUM, Strain/Indicator: TA100, Metabolic Activation: MOUSE, LIVER, S-9, Method: PREINCUBATION
  mutagenic call: active; positive
[1]
  mutagenic call: inactive; negative
Test System: AMES SALMONELLA TYPHIMURIUM, Strain/Indicator: TA100, Metabolic Activation: RABBIT, LIVER, S-9, Method: PREINCUBATION
  mutagenic call: active; positive
Test System: AMES SALMONELLA TYPHIMURIUM, Strain/Indicator: TA100, Metabolic Activation: RAT, LIVER, CYTOSOL, PCB, Method: PREINCUBATION
  mutagenic call: inactive; negative
Test System: AMES SALMONELLA TYPHIMURIUM, Strain/Indicator: TA100, Metabolic Activation: RAT, LIVER, MICROSOMES AND CYTOSOL, PCB, Method: PREINCUBATION
  mutagenic call: active; positive
Test System: AMES SALMONELLA TYPHIMURIUM, Strain/Indicator: TA100, Metabolic Activation: RAT, LIVER, MICROSOMES AND G6PDH, PCB, Method: PREINCUBATION
  mutagenic call: active; positive
Test System: AMES SALMONELLA TYPHIMURIUM, Strain/Indicator: TA100, Metabolic Activation: RAT, LIVER, MICROSOMES, PCB, Method: PREINCUBATION
  mutagenic call: active; positive
Test System: AMES SALMONELLA TYPHIMURIUM, Strain/Indicator: TA100, Metabolic Activation: RAT, LIVER, S-9 (HEATED), PCB, Method: PREINCUBATION
  mutagenic call: inactive; negative
Test System: AMES SALMONELLA TYPHIMURIUM, Strain/Indicator: TA100, Metabolic Activation: RAT, LIVER, S-9, 3-METHYLCHOLANTHRENE, Method: PREINCUBATION
  mutagenic call: active; positive
Test System: AMES SALMONELLA TYPHIMURIUM, Strain/Indicator: TA100, Metabolic Activation: RAT, LIVER, S-9, PCB, Method: PREINCUBATION
  mutagenic call: active; positive
[2]
  mutagenic call: active; positive
Test System: AMES SALMONELLA TYPHIMURIUM, Strain/Indicator: TA100, Metabolic Activation: RAT, LIVER, S-9, Method: PREINCUBATION
  mutagenic call: active; positive
Test System: AMES SALMONELLA TYPHIMURIUM, Strain/Indicator: TA100, Metabolic Activation: RAT, LIVER, S-9 WITHOUT NADP+, PCB, Method: PREINCUBATION
  mutagenic call: inactive; negative
Test System: AMES SALMONELLA TYPHIMURIUM, Strain/Indicator: TA100, Metabolic Activation: TOBACCO CELLS, Method: PREINCUBATION
  mutagenic call: inactive; negative
Test System: AMES SALMONELLA TYPHIMURIUM, Strain/Indicator: TA100, Method: PREINCUBATION
  mutagenic call: active; positive
Test System: CHINESE HAMSTER V-79, Strain/Indicator: V-79/OUABAIN, Metabolic Activation: HAMSTER, HEPATOCYTES, Method: CELL-MEDIATED
  mutagenic call: active; positive

## C1OCOCO1
Test System: AMES SALMONELLA TYPHIMURIUM, Strain/Indicator: TA97, Metabolic Activation: HAMSTER, LIVER, S-9, AROCLOR 1254 (10 OR 30%), Method: PREINCUBATION
  mutagenic call: inactive; negative
Test System: AMES SALMONELLA TYPHIMURIUM, Strain/Indicator: TA97, Metabolic Activation: NONE, Method: PREINCUBATION
  mutagenic call: inactive; negative
Test System: AMES SALMONELLA TYPHIMURIUM, Strain/Indicator: TA97, Metabolic Activation: RAT, LIVER, S-9, AROCLOR 1254 (10 OR 30%), Method: PREINCUBATION
  mutagenic call: inactive; negative
Test System: AMES SALMONELLA TYPHIMURIUM, Strain/Indicator: TA98, Metabolic Activation: HAMSTER, LIVER, S-9, AROCLOR 1254 (10 OR 30%), Method: PREINCUBATION
  mutagenic call: inactive; negative
Test System: AMES SALMONELLA TYPHIMURIUM, Strain/Indicator: TA98, Metabolic Activation: NONE, Method: PREINCUBATION
  mutagenic call: inactive; negative
Test System: AMES SALMONELLA TYPHIMURIUM, Strain/Indicator: TA98, Metabolic Activation: NONE, Method: STANDARD PLATE
  mutagenic call: inactive; negative
Test System: AMES SALMONELLA TYPHIMURIUM, Strain/Indicator: TA98, Metabolic Activation: RAT, LIVER, S-9, AROCLOR 1254 (10 OR 30%), Method: PREINCUBATION
  mutagenic call: inactive; negative
Test System: AMES SALMONELLA TYPHIMURIUM, Strain/Indicator: TA98, Metabolic Activation: RAT, LIVER, S-9, AROCLOR 1254, Method: STANDARD PLATE
  mutagenic call: inactive; negative
Test System: AMES SALMONELLA TYPHIMURIUM, Strain/Indicator: TA100, Metabolic Activation: HAMSTER, LIVER, S-9, AROCLOR 1254 (10 OR 30%), Method: PREINCUBATION
  mutagenic call: inactive; negative
[1]
  mutagenic call: inactive; negative
[3]
  mutagenic call: inactive; negative
Test System: AMES SALMONELLA TYPHIMURIUM, Strain/Indicator: TA100, Metabolic Activation: RAT, LIVER, S-9, AROCLOR 1254 (10 OR 30%), Method: PREINCUBATION
  mutagenic call: inactive; negative
[4]
  mutagenic call: inactive; negative
Test System: AMES SALMONELLA TYPHIMURIUM, Strain/Indicator: TA1535, Metabolic Activation: HAMSTER, LIVER, S-9, AROCLOR 1254 (10 OR 30%), Method: PREINCUBATION
  mutagenic call: inactive; negative
Test System: AMES SALMONELLA TYPHIMURIUM, Strain/Indicator: TA1535, Metabolic Activation: NONE, Method: PREINCUBATION
  mutagenic call: inactive; negative
Test System: AMES SALMONELLA TYPHIMURIUM, Strain/Indicator: TA1535, Metabolic Activation: NONE, Method: STANDARD PLATE
  mutagenic call: inactive; negative
Test System: AMES SALMONELLA TYPHIMURIUM, Strain/Indicator: TA1535, Metabolic Activation: RAT, LIVER, S-9, AROCLOR 1254 (10 OR 30%), Method: PREINCUBATION
  mutagenic call: inactive; negative
Test System: AMES SALMONELLA TYPHIMURIUM, Strain/Indicator: TA1535, Metabolic Activation: RAT, LIVER, S-9, AROCLOR 1254, Method: STANDARD PLATE
  mutagenic call: inactive; negative
Test System: AMES SALMONELLA TYPHIMURIUM, Strain/Indicator: TA1537, Metabolic Activation: NONE, Method: STANDARD PLATE
  mutagenic call: inactive; negative
Test System: AMES SALMONELLA TYPHIMURIUM, Strain/Indicator: TA1537, Metabolic Activation: RAT, LIVER, S-9, AROCLOR 1254, Method: STANDARD PLATE
  mutagenic call: inactive; negative
Test System: AMES SALMONELLA TYPHIMURIUM, Strain/Indicator: TA1538, Metabolic Activation: NONE, Method: STANDARD PLATE
  mutagenic call: inactive; negative
Test System: AMES SALMONELLA TYPHIMURIUM, Strain/Indicator: TA1538, Metabolic Activation: RAT, LIVER, S-9, AROCLOR 1254, Method: STANDARD PLATE
  mutagenic call: inactive; negative

## COc1cc2c(c3oc(=O)c4c(c13)CCOC4=O)[C@@H]1CCO[C@@H]1O2
[1]
  mutagenic call: inactive; negative
[2]
  mutagenic call: inactive; negative

## CCN(N)c1ccccc1
[3]
  mutagenic call: active; positive
[4]
  mutagenic call: inactive; negative
Test System: AMES SALMONELLA TYPHIMURIUM, Strain/Indicator: TA102, Metabolic Activation: NONE, Method: STANDARD PLATE
  mutagenic call: inactive; negative
Test System: AMES SALMONELLA TYPHIMURIUM, Strain/Indicator: TA102, Metabolic Activation: RAT, LIVER, S-9, AROCLOR 1254, Method: STANDARD PLATE
  mutagenic call: active; positive
